# Legend:
# Assay type in all cases: cell-based, mice
# [1] = system: naïve OVA323-339-specific OT-II CD4^+ T cells; assay: BMDC / naive OT-II CD4+ T cell co-culture, Th1 differentiation; conditions: with IFN-γ
# Source text: (§1) FIG. 4A-4K: Effect of inosine on T cell differentiation and dependency on classical dendritic cells of ICB therapy efficacy. (a) Scatter plot of untargeted metabolomics data in the serum of anti-CTLA-4 treated, tumor-bearing B.p. monocolonized compared to C.sp. monocolonized and germ-free (GF) mice. Grey circles or dotted grey circles depict inosine or inosine fragments/adducts, respectively. […] (c) Naïve CD4^+ T cells were co-cultured with bone marrow derived dendritic cells and IFN-γ. Quantification of T-bet^+CD3ε^+CD4^+ T cells 48 hours after co-culture in the presence or absence of inosine, A2A receptor inhibitor (ZM241385), cell permeable cAMP (db-cAMP) and protein kinase A inhibitor (RP-8-CPT-CAMPS). (d) Same as (c) without IFN-γ. (e) Representative plot and quantification (left and right panel) of phospho-CREB (Ser133) levels in naïve CD4^+ T cells cultured with anti-CD3/anti-CD28 coated beads for 1 hour in the presence or absence of inosine. (f) Schematic overview of experimental setup to deplete classical dendritic cells during MC38 tumor challenge and anti-CTLA-4 treatment. Intratumoral (g) frequency of CD8^+ T cells (h) IFN-γ^+CD8^+ T cells. (i and j) same as (g and h), but CD4^+ T cells and (k) tumor weight at […]. Data are mean±SEM and pooled from two individual experiments (a-b) n=5-8 samples/group (c-e) 10-15 biological replicates/group (f-k) 10 mice/group. *, P<0.05; **, P<0.01; ***, P<0.001; ****, P<0.0001
# Bone marrow derived dendritic cells (BMDCs) were generated from flushed bone marrow cells, maintained in RPMI-1640 (Sigma) supplemented with 10% FBS, 50 μm 2-Mercaptoethanol (Sigma) 100 units/ml penicillin, 100 μg/ml streptomycin sulfate and 20 ng/ml rm GM-CSF (R&D). Medium was exchanged after 48 hours and 72 hours. 5 days after culture, a magnetic cell sorting step was performed to enrich for CD11c^+ cells (Miltenyi Biotec). CD11c^+ cells were seeded in 96 flat bottom wells and pulsed with 20 ng/ml OVA323-339 and 100 ng/ml LPS (both Sigma) for 18 hours. In some conditions BMDCs were also cultured with 10 ng/ml rmIFN-γ (R&D).
# Negative selection magnetic cell sorting (Miltenyi Biotec) was used to enrich naïve OT-II CD4^+ T cells. Naïve OT-II CD4^+ T cells were then co-cultured with BMDCs at a ratio of 2:1 or stimulated with anti-CD3/anti-CD28 T cell activation beads (Thermofisher) at a ratio of 1:1 for 48 hours prior to restimulation with PMA/lonomycin in the presence of Brefeldin-A and analysis (see Single cell preparation and flow cytometry for details). In some conditions cells were additionally cultured with various combinations of 2 μg/ml anti-CTLA-4, 100 μM db-cAMP (Sigma), 5 μM ZM 241385 (Sigma), 300 μM Rp-8-CPT-CAMPS (Cayman Chemical) or 2 mM inosine (Sigma) as described previously (He et al., 2017; Yao et al., 2013).
# [2] = system: naïve CD4^+ T cells; assay: Naive CD4+ T cells with anti-CD3/anti-CD28 coated beads; conditions: levels of adenosine in the serum
# Source text: as §1
# FIG. 16A-16J: Context dependent effect of inosine on Th1 T cell differentiation. (a) Naïve CD4^+ T cells were co-cultured with bone marrow derived dendritic cells without IFN-γ. Quantification of T-bet^+CD3e^+CD4^+ T cells 48 hours after co-culture in the presence or absence of inosine and anti-CTLA-4, as indicated. (b) Naïve CD4^+ T cells were cultured anti-CD3/anti-CD28 coated beads at a ratio of 1:1 without IFN-γ for 48 hours. Representative plot and quantification of IL12Rβ2 surface expression on CD4^+ T cells in the presence or absence of inosine (left and right panel). (c) Quantification of T-bet^+CD3e^+CD4^+ T cells 48 hours after co-culture in the presence or absence of inosine, db-cAMP and anti-CTLA-4 as indicated. (d) Naïve, A2AR-deficient CD4^+ T cells were cultured with anti-CD3/anti-CD28 coated beads at a ratio of 1:1 without IFN-γ. Quantification of T-bet^+CD3e^+CD4^+ T cells 48 hours after co-culture in the presence or absence of inosine or db-cAMP (e) Representative plot and quantification (left and right panel) of pCREB expression of anti-CD3/anti-CD28 bead co-cultured CD4^+ T cells in the presence or absence of inosine or db-cAMP 1 hour after stimulation. Analysis through flow cytometry. (f and g) Naïve, wild type CD4^+ T cells were cultured with anti-CD3/anti-CD28 coated beads at a ratio of 1:1. Il12rb2 and Ifng gene transcripts (normalized to Gapdh) were evaluated 24 and 48 hours following inosine (1 mM) stimulation. Expression was normalized to cells treated with medium. Analysis through quantitative PCR assay (h) Naïve CD4^+ T cells were cultured with anti-CD3/anti-CD28 coated beads at a ratio of 1:1 without IFN-γ for 24 hours. Then inosine or vehicle was added at the indicated concentrations for another 48 hours before T cell differentiation and activation was assessed. (i) Adenosine concentrations in the duodenal-, jejunal- or cecal content of B.p. monocolonized mice and in the serum of B.p. or C.sp. monocolonized anti-CTLA-4 treated mice. (j) Naïve CD4^+ T cells were cultured with anti-CD3/anti-CD28 coated beads at a ratio of 1:1 without IFN-γ for 24 hours. Adenosine or was added then in the indicated concentrations for another 48 hours followed by T cell differentiation and activation was assessed through flow cytometry. […]
# [3] = system: A2AR-deficient CD4^+ T cells; assay: A2AR-deficient naive CD4+ T cells with anti-CD3/anti-CD28 coated beads
# Procedure: FIG. 16A-16J: Context dependent effect of inosine on Th1 T cell differentiation. (a) Naïve CD4^+ T cells were co-cultured with bone marrow derived dendritic cells without IFN-γ. Quantification of T-bet^+CD3e^+CD4^+ T cells 48 hours after co-culture in the presence or absence of inosine and anti-CTLA-4, as indicated. (b) Naïve CD4^+ T cells were cultured anti-CD3/anti-CD28 coated beads at a ratio of 1:1 without IFN-γ for 48 hours. Representative plot and quantification of IL12Rβ2 surface expression on CD4^+ T cells in the presence or absence of inosine (left and right panel). (c) Quantification of T-bet^+CD3e^+CD4^+ T cells 48 hours after co-culture in the presence or absence of inosine, db-cAMP and anti-CTLA-4 as indicated. […] Quantification of T-bet^+CD3e^+CD4^+ T cells 48 hours after co-culture in the presence or absence of inosine or db-cAMP (e) Representative plot and quantification (left and right panel) of pCREB expression of anti-CD3/anti-CD28 bead co-cultured CD4^+ T cells in the presence or absence of inosine or db-cAMP 1 hour after stimulation. […] Il12rb2 and Ifng gene transcripts (normalized to Gapdh) were evaluated 24 and 48 hours following inosine (1 mM) stimulation. […] Analysis through quantitative PCR assay (h) Naïve CD4^+ T cells were cultured with anti-CD3/anti-CD28 coated beads at a ratio of 1:1 without IFN-γ for 24 hours. […]
compound,measurement,setting,value
"Nc1nc(NCCc2ccc(O)cc2)nc2nc(-c3ccco3)nn12 [ZM241385, reference compound]",effect of inosine on Th1 differentiation,[1]; inhibitor added (5 μM ZM 241385; 300 μM Rp-8-CPT-CAMPS),completely abrogated the effect of inosine
"Nc1ncnc2c1ncn2[C@@H]1O[C@H](CO)[C@@H](O)[C@H]1O [adenosine, reference compound]","Th1 activation and effector function, adenosine dose response",[2],insufficient to promote Th1 activation and effector function
"CCCC(=O)Nc1ncnc2c1ncn2[C@@H]1O[C@@H]2COP(=O)(O)O[C@H]2[C@H]1OC(=O)CCC [db-CAMP, reference compound]",Th1 differentiation and phosphorylation of CREB,[3],increased Th1 differentiation and phosphorylation of CREB in A2AR-deficient T cells
same,Th1 differentiation,[1]; 100 μM db-cAMP,restored Th1 differentiation and bypassed the need for inosine
